{
  "source": "paper PMC3919815",
  "about": "“Anti-Tumor Effects of Novel 5-O-Acyl Plumbagins Based on the Inhibition of Mammalian DNA Replicative Polymerase Activity” (PLoS ONE, 2014)",
  "assay_in_all_cases": "DNA polymerase activity inhibition",
  "assay_type_in_all_cases": "biochemical",
  "key": {"Cauliflower pol α": {"target": "Cauliflower pol α (Brassica oleracea var. botrytis, UniProt A0A0D3D890)", "excerpt": "(§1) Pol α was purified from calf thymus by immunoaffinity column chromatography as described by Tamai et al.. Recombinant rat pol β was purified from Escherichia coli JMpβ5 as described by Date et al.. The human pol γ catalytic gene was cloned into pFastBac. Histidine-tagged enzyme was expressed using the BACTO-BAC HT Baculovirus Expression System according to the manufacturer's instructions (Life Technologies, Frederick, MD, USA) and purified using ProBound resin (Invitrogen Japan, Tokyo Japan). Human pols δ and ε were purified by nuclear fractionation of human peripheral blood cancer cells (Molt-4) using the second subunit of pol δ and ε-conjugated affinity column chromatography, respectively. A truncated form of human pol η (residues 1–511) tagged with His6 at its C-terminal was expressed in E. coli cells and purified as described by Kusumoto et al.. A recombinant mouse pol ι tagged with His6 at its C-terminal was expressed and purified by Ni–NTA column chromatography. A truncated form of pol κ (residues 1–560) with 6× His-tags attached at the C-terminus was overexpressed in E. coli and purified as described by Ohashi et al.. Recombinant human His-pol λ was overexpressed and purified according to a method described by Shimazaki et al.. Recombinant human His-pol μ was overexpressed in E. coli BL21 and purified using Glutathione Sepharose 4B (GE Healthcare Bio-Science Corp., Piscataway, NJ, USA) column chromatography according to the method for pol λ preparation by Shimazaki et al.. Pol α from a higher plant, cauliflower, was purified from the inflorescence structure according to the methods outlined by Sakaguchi et al.. Recombinant rice (Oryza sativa L. cv. Nipponbare) pol λ tagged with His6 at the C-terminus was expressed in E. coli and purified as described by Uchiyama et al.. Calf TdT, Taq pol, T4 pol, T7 RNA polymerase, and T4 polynucleotide kinase were purchased from Takara Bio Inc. (Kyoto, Japan). The Klenow fragment of pol I from E. coli was purchased from Worthington Biochemical Corp. (Freehold, NJ, USA). Bovine pancreas deoxyribonuclease I was obtained from Stratagene Cloning Systems (La Jolla, CA, USA).\n(§2) The reaction mixtures for calf pol α, rat pol β, plant pol α, and prokaryotic pols have been described previously, [35]; those for pol γ as well as pols δ and ε were previously described by Umeda et al. and Ogawa et al., respectively. Those for pols η, ι, and κ were the same as for pol α, and those for pols λ and μ were the same as for pol β. For the pol reactions, poly(dA)/oligo(dT)18 (A/T, 2/1) and dTTP were used as the DNA template-primer substrate and nucleotide (dNTP; 2′-deoxynucleoside-5′-triphosphate) substrate, respectively. For the TdT reactions, oligo(dT)18 (3′-OH) and dTTP were used as the DNA primer substrate and nucleotide substrate, respectively.\n(§3) The chemically synthesized 5-O-acyl plumbagins (2a–j) were dissolved in distilled dimethyl sulfoxide (DMSO) to various concentrations and sonicated for 30 s. Subsequently, 4 µL aliquots were mixed with 16 µL of each enzyme (0.05 units) in 50 mM Tris-HCl at pH 7.5, containing 1 mM dithiothreitol, 50% glycerol (by vol), and 0.1 mM ethylenediaminetetraacetic acid and held at 0°C for 10 min. These inhibitor-enzyme mixtures in 8 µL volumes were next added to 16 µL of enzyme standard reaction mixture and incubated at 37°C for 60 min, except for Taq pol, which was incubated at 74°C for 60 min. Activity without inhibitor was considered 100%, and the relative activity was determined for each inhibitor concentration. One unit of pol activity was defined as the amount of each enzyme that catalyzed the incorporation of 1 nmol dTTP into synthetic DNA template primers in 60 min, at 37°C, and under standard reaction conditions, [35]."}, "E. coli pol I": {"target": "T1, E. coli pol I (Escherichia coli, UniProt P00582)", "T1 construct": "The Klenow fragment of pol I from E. coli was purchased from Worthington Biochemical Corp; purchased Worthington Biochemical Corp. (Freehold, NJ, USA)", "T1 sequence (P00582 324-928)": "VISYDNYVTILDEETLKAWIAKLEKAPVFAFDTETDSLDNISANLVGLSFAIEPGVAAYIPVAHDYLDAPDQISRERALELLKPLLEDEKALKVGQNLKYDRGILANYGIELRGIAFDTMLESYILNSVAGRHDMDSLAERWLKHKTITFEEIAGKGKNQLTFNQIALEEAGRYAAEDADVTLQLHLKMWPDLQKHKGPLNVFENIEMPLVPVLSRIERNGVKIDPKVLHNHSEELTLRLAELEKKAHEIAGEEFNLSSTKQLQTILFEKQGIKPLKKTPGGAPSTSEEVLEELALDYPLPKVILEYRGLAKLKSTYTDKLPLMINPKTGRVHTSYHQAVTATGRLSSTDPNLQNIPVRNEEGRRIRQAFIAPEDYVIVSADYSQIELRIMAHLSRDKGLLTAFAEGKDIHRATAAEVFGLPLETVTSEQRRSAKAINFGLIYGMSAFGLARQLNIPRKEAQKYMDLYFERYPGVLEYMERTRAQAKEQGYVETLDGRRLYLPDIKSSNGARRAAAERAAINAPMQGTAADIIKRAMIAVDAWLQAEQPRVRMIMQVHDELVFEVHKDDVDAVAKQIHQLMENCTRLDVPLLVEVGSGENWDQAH", "excerpt": "as §1, §2, §3"}, "Human pol δ": {"target": "T2, Human pol δ (Homo sapiens, UniProt P28340)", "T2 construct": "purified by nuclear fractionation of human peripheral blood cancer cells (Molt-4); endogenous in cells; host or cells: Molt-4", "T2 sequence (P28340 whole entry)": "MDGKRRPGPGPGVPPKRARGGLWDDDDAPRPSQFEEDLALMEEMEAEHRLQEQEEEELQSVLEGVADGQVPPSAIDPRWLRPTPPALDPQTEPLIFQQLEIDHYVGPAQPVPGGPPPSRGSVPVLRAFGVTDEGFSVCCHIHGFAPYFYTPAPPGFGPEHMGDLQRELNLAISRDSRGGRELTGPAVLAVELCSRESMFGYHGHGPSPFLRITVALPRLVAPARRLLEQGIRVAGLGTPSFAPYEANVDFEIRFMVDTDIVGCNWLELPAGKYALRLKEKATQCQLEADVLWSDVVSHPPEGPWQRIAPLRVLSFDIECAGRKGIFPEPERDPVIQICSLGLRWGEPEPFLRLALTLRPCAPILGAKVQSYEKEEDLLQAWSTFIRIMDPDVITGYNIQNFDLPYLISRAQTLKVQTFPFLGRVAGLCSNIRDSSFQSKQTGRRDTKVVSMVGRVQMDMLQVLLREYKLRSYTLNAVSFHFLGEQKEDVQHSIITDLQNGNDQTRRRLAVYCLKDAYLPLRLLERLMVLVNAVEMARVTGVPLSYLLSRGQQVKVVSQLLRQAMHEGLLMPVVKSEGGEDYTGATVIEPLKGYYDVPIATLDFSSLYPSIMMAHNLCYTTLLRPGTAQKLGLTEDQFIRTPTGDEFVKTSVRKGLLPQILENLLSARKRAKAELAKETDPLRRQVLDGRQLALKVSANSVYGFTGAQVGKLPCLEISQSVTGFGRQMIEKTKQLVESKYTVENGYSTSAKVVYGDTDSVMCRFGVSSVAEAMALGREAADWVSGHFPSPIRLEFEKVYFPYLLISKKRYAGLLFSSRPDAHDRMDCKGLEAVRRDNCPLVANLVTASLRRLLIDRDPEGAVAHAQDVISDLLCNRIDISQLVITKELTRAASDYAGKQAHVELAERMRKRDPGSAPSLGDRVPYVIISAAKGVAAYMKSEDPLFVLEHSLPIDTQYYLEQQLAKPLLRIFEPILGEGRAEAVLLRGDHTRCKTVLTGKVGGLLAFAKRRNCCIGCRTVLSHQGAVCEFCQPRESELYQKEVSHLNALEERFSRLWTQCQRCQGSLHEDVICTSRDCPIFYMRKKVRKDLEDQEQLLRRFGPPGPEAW", "conditions": "0.05 units enzyme; mean ± SD (n = 3)", "excerpt": "as §1, §2, §3"}, "Human pol η": {"target": "T3, Human pol η (Homo sapiens, UniProt Q9Y253)", "T3 construct": "A truncated form of human pol η (residues 1–511) tagged with His6 at its C-terminal; His6 (C); made in house; host or cells: E. coli", "T3 sequence (Q9Y253 1-511)": "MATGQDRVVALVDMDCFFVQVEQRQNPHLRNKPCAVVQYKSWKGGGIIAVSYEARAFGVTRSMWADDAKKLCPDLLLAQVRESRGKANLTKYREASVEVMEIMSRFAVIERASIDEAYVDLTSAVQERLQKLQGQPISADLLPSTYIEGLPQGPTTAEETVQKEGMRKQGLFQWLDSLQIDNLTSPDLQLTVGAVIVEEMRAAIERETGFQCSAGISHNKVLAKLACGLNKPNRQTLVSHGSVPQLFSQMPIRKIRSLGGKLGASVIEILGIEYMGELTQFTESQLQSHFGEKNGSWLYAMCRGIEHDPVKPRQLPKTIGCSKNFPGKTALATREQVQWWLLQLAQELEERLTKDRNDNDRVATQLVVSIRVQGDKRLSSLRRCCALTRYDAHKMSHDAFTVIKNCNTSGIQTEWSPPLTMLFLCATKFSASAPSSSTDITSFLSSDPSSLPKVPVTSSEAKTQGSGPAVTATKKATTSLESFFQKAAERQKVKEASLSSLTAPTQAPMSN", "conditions": "0.05 units enzyme; mean ± SD (n = 3)", "excerpt": "as §1, §2, §3"}, "Human pol λ": {"target": "T4, Human pol λ (Homo sapiens, UniProt Q9UGP5)", "T4 construct": "His tag; made in house", "T4 sequence (Q9UGP5 1-575)": "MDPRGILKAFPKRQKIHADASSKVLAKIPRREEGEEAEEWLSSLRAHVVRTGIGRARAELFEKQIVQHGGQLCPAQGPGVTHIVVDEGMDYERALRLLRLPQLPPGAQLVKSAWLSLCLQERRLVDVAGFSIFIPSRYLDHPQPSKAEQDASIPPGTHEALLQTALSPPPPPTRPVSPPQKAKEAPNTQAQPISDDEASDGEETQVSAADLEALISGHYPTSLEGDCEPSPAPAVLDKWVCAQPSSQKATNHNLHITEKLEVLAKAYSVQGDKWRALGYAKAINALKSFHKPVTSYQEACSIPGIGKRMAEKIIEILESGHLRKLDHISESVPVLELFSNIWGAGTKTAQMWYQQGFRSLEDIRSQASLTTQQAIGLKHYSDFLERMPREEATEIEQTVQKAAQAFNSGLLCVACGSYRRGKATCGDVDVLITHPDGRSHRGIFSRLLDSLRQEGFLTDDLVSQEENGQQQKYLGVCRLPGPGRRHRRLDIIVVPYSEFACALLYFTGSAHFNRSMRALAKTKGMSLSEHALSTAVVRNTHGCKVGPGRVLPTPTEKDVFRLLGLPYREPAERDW", "conditions": "0.05 units enzyme; mean ± SD (n = 3)", "excerpt": "as §1, §2, §3"}, "Human pol μ": {"target": "T5, Human pol μ (Homo sapiens, UniProt Q9NP87)", "T5 construct": "His tag; made in house; host or cells: E. coli BL21", "T5 sequence (Q9NP87 whole entry)": "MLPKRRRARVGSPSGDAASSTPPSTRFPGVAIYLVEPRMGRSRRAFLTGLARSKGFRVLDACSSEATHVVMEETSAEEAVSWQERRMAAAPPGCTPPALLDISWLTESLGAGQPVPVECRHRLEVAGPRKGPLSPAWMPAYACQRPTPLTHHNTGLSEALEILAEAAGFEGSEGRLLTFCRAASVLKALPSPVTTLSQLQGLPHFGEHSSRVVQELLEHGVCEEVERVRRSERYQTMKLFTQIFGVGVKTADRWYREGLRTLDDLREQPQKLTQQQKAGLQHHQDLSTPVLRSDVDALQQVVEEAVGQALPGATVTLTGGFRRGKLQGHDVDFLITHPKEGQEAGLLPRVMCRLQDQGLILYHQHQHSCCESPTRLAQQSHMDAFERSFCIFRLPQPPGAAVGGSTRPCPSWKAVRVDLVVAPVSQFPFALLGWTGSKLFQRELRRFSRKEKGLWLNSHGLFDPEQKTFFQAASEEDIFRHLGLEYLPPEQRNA", "conditions": "0.05 units enzyme; mean ± SD (n = 3)", "excerpt": "as §1, §2, §3"}, "Mouse pol ι": {"target": "T6, Mouse pol ι (Mus musculus, UniProt Q6R3M4)", "T6 construct": "His6 (C); made in house", "T6 sequence (Q6R3M4 whole entry)": "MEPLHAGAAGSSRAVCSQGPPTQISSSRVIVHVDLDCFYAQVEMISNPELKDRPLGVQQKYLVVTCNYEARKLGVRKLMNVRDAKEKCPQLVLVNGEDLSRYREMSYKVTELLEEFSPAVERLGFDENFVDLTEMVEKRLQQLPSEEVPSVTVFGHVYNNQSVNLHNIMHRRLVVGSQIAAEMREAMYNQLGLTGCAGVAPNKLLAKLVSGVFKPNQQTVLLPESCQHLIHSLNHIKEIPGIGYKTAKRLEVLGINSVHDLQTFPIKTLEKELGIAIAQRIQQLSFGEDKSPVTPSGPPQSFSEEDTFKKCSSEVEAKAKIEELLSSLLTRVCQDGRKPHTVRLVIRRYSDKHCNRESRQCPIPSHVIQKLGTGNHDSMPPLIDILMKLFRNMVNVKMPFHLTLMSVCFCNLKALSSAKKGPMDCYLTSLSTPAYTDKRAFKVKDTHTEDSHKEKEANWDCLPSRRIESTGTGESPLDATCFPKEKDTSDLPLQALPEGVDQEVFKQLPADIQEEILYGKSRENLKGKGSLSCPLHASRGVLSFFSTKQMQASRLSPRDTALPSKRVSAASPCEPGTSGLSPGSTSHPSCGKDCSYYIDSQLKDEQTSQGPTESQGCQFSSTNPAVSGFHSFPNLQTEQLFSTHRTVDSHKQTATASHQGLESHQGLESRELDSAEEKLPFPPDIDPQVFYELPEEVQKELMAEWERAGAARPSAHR", "conditions": "0.05 units enzyme; mean ± SD (n = 3)", "excerpt": "as §1, §2, §3"}, "Rat pol β": {"target": "T7, Rat pol β (Rattus norvegicus, UniProt P06766)", "T7 construct": "made in house; host or cells: Escherichia coli JMpβ5", "conditions": "0.05 units enzyme; mean ± SD (n = 3)", "excerpt": "as §1, §2, §3"}, "T4 pol": {"target": "T8, T4 pol (Enterobacteria phage T4, UniProt P04415)", "T8 construct": "purchased Takara Bio Inc. (Kyoto, Japan)", "T8 sequence (P04415 whole entry)": "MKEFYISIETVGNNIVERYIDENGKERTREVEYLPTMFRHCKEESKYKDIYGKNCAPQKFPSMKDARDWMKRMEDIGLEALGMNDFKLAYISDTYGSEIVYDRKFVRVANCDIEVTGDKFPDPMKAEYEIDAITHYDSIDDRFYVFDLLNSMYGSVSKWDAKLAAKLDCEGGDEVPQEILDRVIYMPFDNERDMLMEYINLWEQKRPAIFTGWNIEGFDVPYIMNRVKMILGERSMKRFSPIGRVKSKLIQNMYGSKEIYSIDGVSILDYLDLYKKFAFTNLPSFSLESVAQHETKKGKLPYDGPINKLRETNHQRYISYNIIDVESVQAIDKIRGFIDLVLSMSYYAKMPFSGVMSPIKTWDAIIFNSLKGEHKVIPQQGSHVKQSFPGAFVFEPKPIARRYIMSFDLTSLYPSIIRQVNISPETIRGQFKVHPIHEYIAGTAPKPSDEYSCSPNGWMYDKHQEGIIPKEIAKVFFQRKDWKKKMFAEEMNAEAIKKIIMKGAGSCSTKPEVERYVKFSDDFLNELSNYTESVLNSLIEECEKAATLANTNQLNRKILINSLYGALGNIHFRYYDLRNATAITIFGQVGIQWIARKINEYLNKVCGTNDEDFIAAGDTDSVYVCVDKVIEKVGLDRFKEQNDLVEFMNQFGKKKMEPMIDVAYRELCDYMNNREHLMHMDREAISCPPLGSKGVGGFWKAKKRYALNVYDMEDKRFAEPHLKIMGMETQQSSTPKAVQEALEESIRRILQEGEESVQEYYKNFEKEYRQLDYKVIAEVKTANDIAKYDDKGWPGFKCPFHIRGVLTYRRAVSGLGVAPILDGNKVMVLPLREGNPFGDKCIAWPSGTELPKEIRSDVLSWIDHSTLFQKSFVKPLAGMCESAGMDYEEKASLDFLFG", "excerpt": "as §1, §2, §3"}},
  "data": [
    {"smiles": "CCCCCCCC/C=C\\CCCCCCCC(=O)Oc1cccc2c1C(=O)C=C(C)C2=O", "note": "[2f, 5-O-oleoyl-2-methyl-1,4-naphthoquinone]", "values": [
      {"measurement": "effect on enzyme activity (in words)", "setting": "Cauliflower pol α", "result": "had no effect"},
      {"measurement": "effect on enzyme activity (in words)", "setting": "E. coli pol I", "result": "had no effect"},
      {"measurement": "IC50", "setting": "E. coli pol I; 0.05 units enzyme", "result": "> 100", "unit": "µM"},
      {"measurement": "IC50", "setting": "Human pol δ", "result": "5.3 ± 0.41", "unit": "µM"},
      {"measurement": "IC50", "setting": "Human pol η", "result": "7.9 ± 0.42", "unit": "µM"},
      {"measurement": "IC50", "setting": "Human pol λ", "result": "9.2 ± 0.43", "unit": "µM"},
      {"measurement": "IC50", "setting": "Human pol μ", "result": "9.5 ± 0.48", "unit": "µM"},
      {"measurement": "IC50", "setting": "Mouse pol ι", "result": "8.2 ± 0.43", "unit": "µM"},
      {"measurement": "IC50", "setting": "Rat pol β", "result": "10.3 ± 0.46", "unit": "µM"},
      {"measurement": "effect on enzyme activity (in words)", "setting": "T4 pol", "result": "had no effect"},
      {"measurement": "IC50", "setting": "T4 pol; 0.05 units enzyme", "result": "> 100", "unit": "µM"}
    ]}
  ]
}
